What was measured:
[1] = target: mushroom tyrosinase; assay: Tyrosinase inhibition assay (o-diphenolase activity, L-DOPA as substrate); assay type: biochemical; conditions: mushroom tyrosinase 30 units (28 nM), L-DOPA 0.5 mM, pH 6.8, absorbance at 475 nm, mean ± S.E.M., at least triplicates; read-out: IC50 ± SEM (in μM), tyrosinase inhibitory activity
Experimental: Tyrosinase inhibition assays were performed in 96-well microplate format using SpectraMax 340 microplate reader (Molecular Devices, CA, USA) according to the method developed by Hearing (1987). Briefly, first the compounds were screened for the o-diphenolase inhibitory activity of tyrosinase using L-DOPA as substrate. […] Compounds were dissolved in methanol to a concentration of 2.5%. 30 units of mushroom tyrosinase (28 nM from Sigma Chemical Co., USA) first preincubated with the compounds in […] Na-phosphate buffer (pH 6.8) for 10 min at 25° C. Then, the L-DOPA (0.5 mM) was added to the reaction mixture and the enzyme reaction was monitored by measuring the change in absorbance at 475 nm (at 37° C.) due to the formation of the DOPA chrome for 10 min. The percent inhibition of the enzyme was calculated as =[…], wherein the B and S are absorbance for the blank and samples, respectively. After screening, the compounds median inhibitory concentration (IC50) was also calculated. […] (Hearing et al., Int J Biochem, 19(12): 1141-71987).

[2] = system: Salmonella typhimurium; conditions: studies referred to, no data of the applicant; cited from earlier work

Compound	IC50 [1] [µM]	mutagenic activity in a Salmonella typhimurium assay [2]	melting point [°C]
C#CC1(O)CCC2C3C(C)CC4=CC(=O)CCC4C3CCC21C (stereo not shown) [Metabolite 3, Δ^4-Tibolone]	8.19 ± 0.54	–	–
O=c1cc(CO)occ1O [Kojic acid]	–	weak mutagenic activity	–
C#CC1(O)CC(O)C2C3C(C)CC4=C(CCC(=O)C4)C3CCC21C (stereo not drawn) [Metabolite 2, 15β-Hydroxytibolone]	50.86 ± 0.36	–	–
C#CC1(O)CCC2C3C(CCC21C)C1=C(CC(=O)CC1)C(O)C3C (stereo not drawn) [Metabolite 1, 6β-Hydroxytibolone]	7.45 ± 0.21	–	202 to 205
C#CC1(O)CCC2C3C(C)C(OC)C4=CC(=O)CCC4C3CCC21C (stereo not drawn) [Metabolite 8, 6β-Methoxy-Δ^4-Tibolone]	25.15 ± 0.24	–	–
C#CC1(O)CCC2C3C(C)CC4=CC(=O)CCC4(O)C3CCC21C (stereo not drawn) [Metabolite 4, 10β-Hydroxy-Δ^4-Tibolone]	119.4 ± 0.2	–	–
C#CC1(O)CC(O)C2C3C(C)CC4=C(CCC(=O)C4)C3C(O)CC21C (stereo not drawn) [Metabolite 5, 11α,15β-Dihydroxytibolone]	5.12 ± 0.67	–	208 to 210
C#CC1(O)CC(O)C2C3C(C)C=C4CC(=O)CCC4C3C(O)CC21C (stereo not drawn) [Metabolite 6, 11α,15β-Dihydroxy-Δ^5-Tibolone]	7.1 ± 0.13	–	207 to 211
C#CC1(O)CCC2C3C(C)C(O)C4=CC(=O)CCC4C3CCC21C (stereo not drawn) [Metabolite 7, 6β-Hydroxy-Δ^4-Tibolone]	36.14 ± 0.21	–	–
N[C@@H](Cn1ccc(=O)c(O)c1)C(=O)O [L-Mimosine, L-mimosine, reference compound]	3.68 ± 0.022	–	–
